In US11446262B2, “Neuroquiescence—a treatment for neurodevelopmental and neurodegenerative bioelectrical dysregulation and demyelination” (priority 2018, dated 2022):
“Also recorded” adds a separate entry of the source.

How the values were obtained:
[1] = system: children with seizures and agitated bioelectrical brain activity; design: species or system human; conditions: in vivo
[2] = system: seizure and Grand mal seizure; assay: Midazolam IV for termination of seizure; assay type: in vivo, human; conditions: IV 0.2 mg/kg (Maximum 10 mg)
[3] = Absorption of Midazolam administered by IV
[4] = system: patients (allergic reaction); assay: Anesthesia allergy test before the Neuroquiescence session
[5] = system: children with Epilepsy (seizures, neuronal agitation noise on EEG); assay: Neuroquiescence protocol (Dobutamine preparation plus sustained sedation) in children with Epilepsy, hospital case series; assay type: in vivo, human
[6] = system: patients with seizures (Epilepsy); assay: Use of Dobutamine in seizure patients before the sedation session (adults); assay type: in vivo, human
Text: We alternate weeks between the Neurokinin-2 (Nk2) versus the Dobutamine Infusion (Dob). We are limited to four doses of Neurokinin 2, so we distribute them among the Dobutamine doses to maximize the Neurokinin-2 counterinflammation. We use no Dobutamine on the day before or after the day of Neurokinin-2.
The traditional “intractable” Epilepsy concept is overcome by use of Dobutamine, which is about cerebrovascular bloodflow, not about suppression of seizures. Dobutamine outperforms antiseizure medications because it addresses the true root-cause of seizures.

SMILES	EEG monitoring and Brainscans [1]	symptoms of seizures and agitated bioelectrical brain activity [1]	symptoms of seizures and bioelectrical brain activity after Neuroquiescence [1]	termination of frequency of seizure and Grand mal seizure [2]	absorption [3]	patients allergic in allergy test [4]	children having no neuronal agitation noise, never returns ([5]; after week-six Neuroquiescence sedation session, Dobutamine continued)	children with no seizures but neuronal agitation noise still present ([5]; weeks two through five, Pre-Neuroquiescence preparation on Dobutamine, no antiseizure medication)	seizure status of adults previously taking multiple antiseizure medications ([6]; intravenous Dobutamine, before sedation session)	performance versus antiseizure medication ([6]; neuronal agitation still present during weeks of microvascular preparation)	time to seizure-free ([6]; one adult with unmanageable morning seizures for fifteen years)	neuronal agitation on EEG ([6]; same adult, a few more months, all antiseizure medications removed)
Cc1ncc2n1-c1ccc(Cl)cc1C(c1ccccc1F)=NC2 [Midazolam]	became normal	resolved	partial improvement; also recorded: resolved	effective	well absorbed	approximately 5%						
CC(CCc1ccc(O)cc1)NCCc1ccc(O)c(O)c1 (stereo not drawn) [Dobutamine]							over 95%	about 80%	become seizure free	consistently outperformed their antiseizure medication	seizure-free in less than one month	no neuronal agitation measurable at EEG sensitivities
